Laboratory results from ChEMBL document CHEMBL1134023, “The discovery of RFI-641 as a potent and selective inhibitor of the respiratory syncytial virus” (Bioorg Med Chem Lett, 2001).

Tests used:
Human betaherpesvirus 5 = experiment: Inhibitory concentration required against HCMV (Human cytomegalovirus) by using HCMV AD169 and assay is via an indicator gene in the virus; type: functional, organism-based
[1] = Inhibitory concentration required against HSV-1 (Herpes simplex virus) by using HSV-1 in ELISA assay; type: functional
Human orthopneumovirus = experiment: In vitro inhibitory concentration against HRSV (Human respiratory syncytial virus) by using RSV A2 and the assay is by ELISA; type: functional, organism-based
[2] = system: Respiratory syncytial virus; experiment: In vitro inhibitory activity against respiratory syncytial virus (RSV); type: functional, organism-based; details: human respiratory syncytial virus

Row | Structure (SMILES) | IC50 (Human betaherpesvirus 5) [µM] | IC50 [1] [µM] | IC50 (Human orthopneumovirus) [µM] | IC50 [2] [µM]
1 | NC(=O)CCN(CCC(N)=O)S(=O)(=O)c1cccc(Nc2nc(Nc3cccc(S(=O)(=O)N(CCC(N)=O)CCC(N)=O)c3)nc(Nc3ccc(-c4ccc(Nc5nc(Nc6cccc(S(=O)(=O)N(CCC(N)=O)CCC(N)=O)c6)nc(Nc6cccc(S(=O)(=O)N(CCC(N)=O)CCC(N)=O)c6)n5)cc4S(=O)(=O)O)c(S(=O)(=O)O)c3)n2)c1 | 13.9 | 19.5 | 0.08 | 0.05
2 | NC(=O)CN(CC(N)=O)S(=O)(=O)c1cccc(Nc2nc(Nc3cccc(S(=O)(=O)N(CC(N)=O)CC(N)=O)c3)nc(Nc3ccc(-c4ccc(Nc5nc(Nc6cccc(S(=O)(=O)N(CC(N)=O)CC(N)=O)c6)nc(Nc6cccc(S(=O)(=O)N(CC(N)=O)CC(N)=O)c6)n5)cc4S(=O)(=O)O)c(S(=O)(=O)O)c3)n2)c1 [RF-1461] | 2.55 | 7.7 | 0.05 | –
3 | NC(=O)CCN(CCC(N)=O)S(=O)(=O)c1cccc(Nc2nc(Nc3cccc(S(=O)(=O)N(CCC(N)=O)CCC(N)=O)c3)nc(Nc3ccc(/C=C/c4ccc(Nc5nc(Nc6cccc(S(=O)(=O)N(CCC(N)=O)CCC(N)=O)c6)nc(Nc6cccc(S(=O)(=O)N(CCC(N)=O)CCC(N)=O)c6)n5)cc4S(=O)(=O)O)c(S(=O)(=O)O)c3)n2)c1 | – | – | – | 0.15
4 | NC(=O)CCNS(=O)(=O)c1cccc(Nc2nc(Nc3cccc(S(=O)(=O)NCCC(N)=O)c3)nc(Nc3ccc(-c4ccc(Nc5nc(Nc6cccc(S(=O)(=O)NCCC(N)=O)c6)nc(Nc6cccc(S(=O)(=O)NCCC(N)=O)c6)n5)cc4S(=O)(=O)O)c(S(=O)(=O)O)c3)n2)c1 | 2.64 | 23.2 | 0.66 | –

Second part, the compound after the results:

Row | IC50 (Human betaherpesvirus 5) [µM] | IC50 [1] [µM] | IC50 (Human orthopneumovirus) [µM] | IC50 [2] [µM] | Structure (SMILES)
5 | 5.8 | 8.5 | 0.1 | – | NC(=O)CCCN(CCCC(N)=O)S(=O)(=O)c1cccc(Nc2nc(Nc3cccc(S(=O)(=O)N(CCCC(N)=O)CCCC(N)=O)c3)nc(Nc3ccc(-c4ccc(Nc5nc(Nc6cccc(S(=O)(=O)N(CCCC(N)=O)CCCC(N)=O)c6)nc(Nc6cccc(S(=O)(=O)N(CCCC(N)=O)CCCC(N)=O)c6)n5)cc4S(=O)(=O)O)c(S(=O)(=O)O)c3)n2)c1
6 | 1.37 | > 25 | 0.27 | – | NC(=O)CNS(=O)(=O)c1cccc(Nc2nc(Nc3cccc(S(=O)(=O)NCC(N)=O)c3)nc(Nc3ccc(-c4ccc(Nc5nc(Nc6cccc(S(=O)(=O)NCC(N)=O)c6)nc(Nc6cccc(S(=O)(=O)NCC(N)=O)c6)n5)cc4S(=O)(=O)O)c(S(=O)(=O)O)c3)n2)c1
